{"source": "paper PMC11286589", "about": "“Population pharmacokinetics and exposure–response analyses of SAF-189s in Chinese patients with ALK+/ROS1+ non-small cell lung cancer” (Frontiers in Pharmacology, 2024)", "origin": "cited, not measured here", "details": "cited from earlier work", "data": [{"smiles": "Cc1cc(Nc2ncc(Cl)c(Nc3ccccc3S(=O)(=O)C(C)C)n2)c(OC(C)C)cc1C1CCNCC1", "note": "[ceritinib]", "values": [{"measurement": "incidence rate of hyperglycemia", "setting": "FIH trial, ref Khozin et al., 2015", "value": 49, "unit": "%"}]}, {"smiles": "C[C@@H](Oc1cc(-c2cnn(C3CCNCC3)c2)cnc1N)c1c(Cl)ccc(F)c1Cl", "note": "[crizotinib]", "values": [{"measurement": "effect on glucose tolerance in patients", "setting": "current clinical use, ref Camidge et al., 2018, Seto et al., 2019, Wolf et al., 2022", "value": "no effects on glucose tolerance"}]}]}
